PubChem BioAssay (NCI)
“And” between values parts separate entries of the source, which are not always exact repeats. Equal values may be shown once.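 Briefly, cells in 96-well plates were exposed to five compound concentrations for 48 h, and endpoints were estimated by linear interpolation. The concentration for 50% growth inhibition is given as GI50. TGI marks complete inhibition of growth.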

Experiments:
Experiment in all cases: NCI tumour cell line growth inhibition, 48 h
[1] = system: NCI-H226 lung
[2] = system: M19-MEL melanoma
[3] = system: DLD-1 colon
[4] = system: 786-0 renal
[5] = system: A498 renal
[6] = system: SW-620 colon
[7] = system: KM12 colon
[8] = system: HCC-2998 colon
[9] = system: PC-3 prostate
[10] = system: UO-31 renal
[11] = system: NCI/ADR-RES ovarian
[12] = system: OVCAR-5 ovarian
[13] = system: U251 CNS
[14] = system: SF-539 CNS
[15] = system: A549 NSCLC
[16] = system: HS 578T breast
[17] = system: T-47D breast
[18] = system: MDA-MB-435
[19] = system: MALME-3M melanoma
[20] = system: SNB-75 CNS
[21] = system: SR leukemia
[22] = system: KM20L2 colon
[23] = system: DU-145 prostate
[24] = system: P388/ADR leukemia
[25] = system: HCT-15 colon
[26] = system: TK-10 renal
[27] = system: DMS 273 small cell lung
[28] = system: HCT-116 colon
[29] = system: EKVX NSCLC
[30] = system: UACC-257 melanoma
[31] = system: SK-OV-3 ovarian
[32] = system: BT-549 breast
[33] = system: HL-60(TB) leukemia
[34] = system: HT29 colon
[35] = system: OVCAR-3 ovarian
[36] = system: MCF7 breast
[37] = system: SN12C renal
[38] = system: NCI-H522 lung
[39] = system: LOX IMVI melanoma
[40] = system: COLO 205 colon
[41] = system: SK-MEL-2 melanoma
[42] = system: SK-MEL-28 melanoma
[43] = system: K-562 leukemia
[44] = system: SNB-78 CNS
[45] = system: SNB-19 CNS
[46] = system: NCI-H460 lung
[47] = system: ACHN renal
[48] = system: SF-268 CNS
[49] = system: HOP-18 NSCLC
[50] = system: IGROV1 ovarian
[51] = system: DMS 114 small cell lung

## CCCCCCCCCCCC[C@@H](O)[C@H]1CC[C@H]([C@H](O)CCCC[C@H](O)CCCCC[C@@H](O)CC2=C[C@H](C)OC2=O)O1
[1]
  GI50: 1.53 µM
  TGI: 3.54 µM and 18.2 µM
[2]
  TGI: 5.71 µM
[3]
  TGI: 11.5 µM
[4]
  TGI: 6.42 µM and 8.45 µM
[5]
  GI50: 5.27 µM
  TGI: 9.41 µM and 13.6 µM
[6]
  TGI: 6.58 µM and 12.9 µM
[7]
  GI50: 1.98 µM
  TGI: 5.17 µM and 12.3 µM
[8]
  TGI: 10.6 µM
[9]
  GI50: 2.43 µM
  TGI: 5.16 µM and 12.3 µM
[10]
  GI50: 1.3 µM
  TGI: 5.11 µM and 7.51 µM
[11]
  TGI: 5.42 µM and 11.2 µM
[12]
  GI50: 1.59 µM and 5.77 µM
  TGI: 3.05 µM and 17.9 µM
[13]
  GI50: 3.31 µM
  TGI: 11.6 µM
[14]
  GI50: 4.18 µM
  TGI: 5.59 µM and 11.2 µM
[15]
  GI50: 1.71 µM
  TGI: 8.37 µM and 11.3 µM
[16]
  GI50: 4.22 µM
  TGI: 7.06 µM and 22.1 µM
[17]
  GI50: 1.74 µM
  TGI: 14.1 µM
[18]
  GI50: 2.26 µM
  TGI: 5.43 µM and 12 µM
[19]
  GI50: 3.49 µM
  TGI: 8.59 µM
[20]
  GI50: 4.02 µM
  TGI: 7.77 µM and 10.3 µM
[21]
  GI50: 1.11 µM
  TGI: 3.87 µM
[22]
  TGI: 8.96 µM
[23]
  GI50: 7.93 µM
  TGI: 21.3 µM
[24]
  TGI: 7.53 µM
[25]
  GI50: 2.83 µM
  TGI: 5.8 µM and 9.73 µM
[26]
  GI50: 3.94 µM
  TGI: 6.59 µM and 15.3 µM
[27]
  TGI: 5.55 µM
[28]
  GI50: 0.425 µM
  TGI: 5.2 µM and 6.56 µM
[29]
  GI50: 2.17 µM
  TGI: 6.88 µM and 12.5 µM
[30]
  GI50: 0.0724 µM
  TGI: 5.68 µM and 3.36 µM
[31]
  TGI: 11.4 µM
[32]
  TGI: 24 µM
[33]
  GI50: 0.548 µM and < 0.0574 µM
  TGI: 4.24 µM and 2.13 µM
[34]
  TGI: 5.64 µM and 8.54 µM
[35]
  GI50: 1.41 µM and 1.56 µM
  TGI: 2.71 µM and 4.05 µM
[36]
  TGI: 5.13 µM and 6.79 µM
[37]
  TGI: 7.66 µM and 15.6 µM
[38]
  TGI: 4.45 µM
[39]
  GI50: 0.809 µM
  TGI: 4.92 µM and 4.19 µM
[40]
  GI50: 3.47 µM
  TGI: 3.52 µM
[41]
  GI50: 1.3 µM
  TGI: 2.6 µM and 1.68 µM
[42]
  GI50: 3.77 µM
  TGI: 6.19 µM and 9.93 µM
[43]
  GI50: 0.302 µM
  TGI: 7.06 µM
[44]
  TGI: 15.2 µM
[45]
  GI50: 2.32 µM
  TGI: 5.45 µM and 11.4 µM
[46]
  GI50: 2.4 µM
  TGI: 5.16 µM and 11.7 µM
[47]
  GI50: 2.74 µM
  TGI: 6.53 µM and 14.9 µM
[48]
  GI50: 2.38 µM
  TGI: 6.01 µM and 11.2 µM
[49]
  TGI: 15.5 µM
[50]
  GI50: 3.58 µM
  TGI: 6.05 µM and 8.67 µM
[51]
  TGI: 0.371 µM

## CCN(CC)CCOc1cccc2nc3c(cc12)Cn1c-3cc2c(c1=O)COC(=O)C2(O)CC (stereo not given)
[1]
  GI50: 0.963 µM and 2.23 µM
  TGI: 10.9 µM and 16.8 µM
[2]
  GI50: 3.74 µM and 2.38 µM
  TGI: 18.5 µM and 17 µM
[3]
  GI50: 10.9 µM
  TGI: 38.8 µM
[4]
  GI50: 0.595 µM
  TGI: 11.7 µM
[5]
  GI50: 2.13 µM and 3.91 µM
  TGI: 6.74 µM and 18.2 µM
[6]
  GI50: 2.17 µM and 4.33 µM
  TGI: 29.7 µM and 36.6 µM
[7]
  GI50: 4.53 µM and 7.49 µM
  TGI: 18.5 µM and 25.6 µM
[8]
  GI50: 7.1 µM
  TGI: 21.8 µM
[9]
  GI50: 4.62 µM
  TGI: > 100 µM
[10]
  GI50: 1.8 µM and 3.19 µM
  TGI: 8.7 µM and 11.9 µM
[11]
  GI50: 0.886 µM and 3.07 µM
  TGI: 18 µM and 19.1 µM
[12]
  GI50: 0.45 µM and 3.46 µM
  TGI: 3.81 µM and 32.7 µM
[13]
  GI50: 0.0867 µM and 0.358 µM
  TGI: 1.43 µM and 11.1 µM
[14]
  GI50: 0.267 µM and 0.774 µM
  TGI: 1.47 µM and 3.93 µM
[15]
  GI50: 0.787 µM and 2.06 µM
  TGI: 20.4 µM and 13 µM
[16]
  GI50: 83.9 µM
  TGI: > 100 µM
[17]
  GI50: 0.739 µM
  TGI: 7.25 µM
[18]
  GI50: 12.2 µM
  TGI: 28.2 µM
[19]
  GI50: 11.1 µM and 12.3 µM
  TGI: 24.6 µM and 25 µM
[20]
  GI50: 1.34 µM and 0.545 µM
  TGI: 19.5 µM and 5.09 µM
[21]
  GI50: 0.169 µM
  TGI: 0.716 µM
[22]
  GI50: 2 µM
  TGI: 14.4 µM
[23]
  GI50: 0.423 µM
  TGI: 3.77 µM
[24]
  GI50: 2.56 µM
  TGI: 8.27 µM
[25]
  GI50: 5.14 µM and 8.13 µM
  TGI: 26.1 µM and 37.8 µM
[26]
  GI50: 26.7 µM
  TGI: > 100 µM
[27]
  GI50: 0.086 µM and 0.33 µM
  TGI: 1.58 µM and 11.8 µM
[28]
  GI50: 0.403 µM and 1.29 µM
  TGI: 10.9 µM and 14.2 µM
[29]
  GI50: 7.37 µM
  TGI: > 40 µM
[30]
  GI50: 11 µM and 7.08 µM
  TGI: 23.1 µM and 21 µM
[31]
  GI50: 4.39 µM
  TGI: > 43.4 µM
[32]
  GI50: 2.99 µM
  TGI: 17.2 µM
[33]
  GI50: 0.304 µM
  TGI: 1.95 µM
[34]
  GI50: 2.19 µM and 2.44 µM
  TGI: 12.7 µM and 13.5 µM
[35]
  GI50: 5.64 µM and 9.73 µM
  TGI: 20.3 µM and 25.9 µM
[36]
  GI50: 0.182 µM and 0.449 µM
  TGI: 14.9 µM and 22.4 µM
[37]
  GI50: 0.266 µM and 0.747 µM
  TGI: 9.16 µM and > 41.5 µM
[38]
  GI50: 7.54 µM and 1.36 µM
  TGI: 23.1 µM and 14.5 µM
[39]
  GI50: 0.429 µM and 0.508 µM
  TGI: 11.3 µM and 12.1 µM
[40]
  GI50: 6.58 µM and 1.94 µM
  TGI: 21.8 µM and 30.5 µM
[41]
  GI50: 12.3 µM and 17.9 µM
  TGI: 25.3 µM and 39.6 µM
[42]
  GI50: 7.51 µM and 12.3 µM
  TGI: 20.7 µM and 30 µM
[43]
  GI50: 2.53 µM
  TGI: > 46.9 µM
[44]
  GI50: 14.1 µM
  TGI: 80.2 µM
[45]
  GI50: 0.329 µM and 0.87 µM
  TGI: 30.6 µM and > 58.1 µM
[46]
  GI50: 0.0754 µM and 0.282 µM
  TGI: 1.88 µM and 11.8 µM
[47]
  GI50: 0.675 µM
  TGI: > 100 µM
[48]
  GI50: 0.212 µM and 0.188 µM
  TGI: 11.7 µM
[49]
  GI50: 2.34 µM and 2.65 µM
  TGI: 9.93 µM and 18.9 µM
[50]
  GI50: 5.77 µM and 4.63 µM
  TGI: 21.6 µM and > 44.8 µM
[51]
  GI50: 0.139 µM and 0.206 µM
